From publication PMC7024208, “In Silico and In Vitro Experimental Studies of New Dibenz[b,e]oxepin-11(6H)one O-(arylcarbamoyl)-oximes Designed as Potential Antimicrobial Agents” (Molecules, 2020)
≈ marks a conversion by molar mass, not a printed value. Where two headings read alike, the source gives them in different places.

Legend:
B. subtilis ATCC 6633 [1] = test: Qualitative antimicrobial screening, adapted disk diffusion; type: cell-based, Bacillus subtilis; set-up: zone of inhibition: dose or concentration left out as unconfirmed; settings: for growth inhibition diameter / zone of inhibition at 5000 µg/mL (stock): B. subtilis ATCC 6633, adapted diffusion assay; for zone of inhibition at 5000 µg/mL (stock): ATCC6633, read-out: growth inhibition diameter
Experimental: (§1) The antimicrobial activities of the synthesized compounds were determined against ATCC reference and clinical microbial strains, i.e., Bacillus subtilis ATCC 6633, Staphylococcus aureus ATCC 25923, Escherichia coli ATCC 25922, Klebsiella pneumoniae 350, Pseudomonas aeruginosa 1671 and Candida albicans ATCC 10231, using as positive controls the antibiotic ticarcillin and the antifungal agent fluconazole. Microbial suspensions of 1.5 × 10^8 CFU/mL corresponding to 0.5 McFarland density obtained from 15–18 h bacterial cultures developed on solid media were used in our experiments. The antimicrobial activity was tested on Mueller-Hinton Agar (MHA) medium, while a Yeast Peptone Glucose (YPG) medium was used in case of C. albicans. The obtained compounds were solubilized in DMSO and the starting stock solution was of 5000 μg/mL concentration. The qualitative screening was performed by an adapted disk diffusion method as previously reported.

S. aureus ATCC 25923 [2] = test: as above; type: cell-based, Staphylococcus aureus; set-up: zone of inhibition: dose or concentration left out as unconfirmed; settings: for zone of inhibition at 5000 µg/mL (stock): ATCC25923, read-out: growth inhibition diameter
Experimental: as §1

P. aeruginosa ATCC 27853 = test: as above; type: cell-based; set-up: zone of inhibition: dose or concentration left out as unconfirmed; settings: Pseudomonas aeruginosa; for zone of inhibition at 5000 µg/mL (stock): ATCC27853, P. aeruginosa ATCC 27853, adapted diffusion assay, read-out: growth inhibition diameter
E. coli ATCC 25922 [3] = test: as above; type: cell-based, Escherichia coli; set-up: zone of inhibition: dose or concentration left out as unconfirmed; settings: for zone of inhibition at 5000 µg/mL (stock): ATCC25922, read-out: growth inhibition diameter
Experimental: as §1

K. pneumoniae 1771 = test: as above; type: cell-based, Klebsiella pneumoniae; set-up: zone of inhibition: dose or concentration left out as unconfirmed; settings: for zone of inhibition at 5000 µg/mL (stock): Klebsiella pneumoniae, K. pneumoniae 1771, adapted diffusion assay, read-out: growth inhibition diameter
C. albicans ATCC 10231 [4] = test: as above; type: cell-based, Candida albicans; set-up: zone of inhibition: dose or concentration left out as unconfirmed; settings: for zone of inhibition at 5000 µg/mL (stock): ATCC10231, read-out: growth inhibition diameter
Experimental: as §1

B. subtilis ATCC 6633 [5] = test: MIC by liquid medium microdilution; type: cell-based, Bacillus subtilis; settings: B. subtilis ATCC 6633, 24 h at 37 °C
Experimental: as §1
(§2) The quantitative assay of the antimicrobial activity was performed by the liquid medium microdilution method, in 96 multi-well plates, in order to establish the minimal inhibitory concentration (MIC). In this purpose, serial two-fold dilutions of the compounds ranging between 5000 and 4.8 µg/mL were performed in a 200 µL volume of broth and each well was seeded with 50 µL of microbial inoculum. Sterility control (wells containing only culture medium) and culture controls (wells containing culture medium seeded with the microbial inoculum) were used. The influence of the DMSO solvent was also quantified in a series of wells containing DMSO [36], diluted accordingly with the dilution scheme used for the compounds and for the positive controls.

C. albicans ATCC 10231 [6] = test: MIC by liquid medium microdilution; type: cell-based; settings: Candida albicans
Experimental: as §1, §2

E. coli ATCC 25922 [7] = test: MIC by liquid medium microdilution; type: cell-based; settings: Escherichia coli
Experimental: as §1, §2

S. aureus ATCC 25923 [8] = test: MIC by liquid medium microdilution; type: cell-based; settings: Staphylococcus aureus
Experimental: as §1, §2

S. aureus ATCC 25923 [9] = test: Antibiofilm activity (MBEC), micro-titer method on plastic inert substratum; type: cell-based, Staphylococcus aureus; settings: S. aureus ATCC 25923 biofilm on plastic substratum
Experimental: (§3) The assessment of the new compounds influence on the microbial ability to colonize the plastic inert substratum was performed by the micro-titer method, following previously described protocols. The absorbance at 490 nm was measured with an LB 911 ELISA reader (Apollo, Berthold Technologies GmbH & Co. KG, Bad Wildbad, Germany). All biological experiments were performed in triplicates.

[10] = Cytotoxicity, CellTiter Assay; type: cell-based; settings: human, HCT8 cells, 400–10 µg/mL tested
Experimental: (§4) For the in vitro assessment of the cytotoxic effect, the HCT8 cells and the CellTiter Assay kit (Promega, Madison, WI, USA) and Annexin V-FITC Apoptosis Detection Kit I (BD Bioscience Pharmingen, Franklin Lakes, NJ, USA) were used. Briefly, for CellTiter Assay, 1 × 10^4 cells/well were plated in 96 well plate and 24 h after, were treated with the new compound at final concentration between 400 µg/mL–10 µg/mL. The viability was evaluated after 24 h by adding CellTiter aqueous solution and reading to spectrophotometer according to the manufacturer indications. The IC50 were calculated from the percent of viability reported to untreated cells using on line tools https://www.aatbio.com/tools/ic50-calculator. For Annexin V-FITC Apoptosis Detection Kit I, 5 × 10^5 cells were seeded in 3.5 cm diameter Petri dish and treated with 100 µg/mL compounds solution for 24 h. The total cells were resuspended in 100 µL of binding buffer, and stained with 5 µL Annexin V-FITC and 5 µL propidium iodide for 10 min in dark. At least 10,000 events from each sample were acquired using a flow cytometer (Beckman Coulter, Indianapolis, IN, USA). The percentage of cells affected by the treatment was determined by subtracting the percentage of apoptotic/necrotic cells in the untreated population from percentage of apoptotic cells in the treated population.

[11] = Annexin V-FITC/propidium iodide apoptosis analysis by flow cytometry; type: cell-based; settings: human, HCT8 cells, Annexin V-FITC/PI, read-out: viable cells (Q4)
Experimental: as §4

B. subtilis ATCC 6633 [12] = test: Antibiofilm activity (MBEC), micro-titer method on plastic inert substratum; type: cell-based, Bacillus subtilis; settings: B. subtilis ATCC 6633 biofilm on plastic substratum
Experimental: as §3

C. albicans ATCC 10231 [13] = test: as above; type: cell-based, Candida albicans; settings: C. albicans ATCC 10231 biofilm on plastic substratum
Experimental: as §3

[14] = Staphylococcus aureus, S. aureus ATCC 25923, adapted diffusion assay
[15] = Escherichia coli, E. coli ATCC 25922, adapted diffusion assay
[16] = Candida albicans, C. albicans ATCC 10231, adapted diffusion assay

| Compound | zone of inhibition at 5000 µg/mL (stock) (B. subtilis ATCC 6633 [1]; Bacillus subtilis) | zone of inhibition at 5000 µg/mL (stock) (S. aureus ATCC 25923 [2]; [14]) | zone of inhibition at 5000 µg/mL (stock) (P. aeruginosa ATCC 27853) | zone of inhibition at 5000 µg/mL (stock) (E. coli ATCC 25922 [3]; [15]) | zone of inhibition at 5000 µg/mL (stock) (K. pneumoniae 1771) | zone of inhibition at 5000 µg/mL (stock) (C. albicans ATCC 10231 [4]; [16]) | also measured |
| --- | --- | --- | --- | --- | --- | --- | --- |
| O=C(Nc1ccc(F)cc1)ON=C1c2ccccc2COc2ccccc21 [Compound 7b, 6,11-Dihydrodibenz[b,e]oxepin-11(6H)one O-(4-fluorophenyl-carbamoyl)oxime] | – | – | – | – | – | – | growth inhibition diameter (B. subtilis ATCC 6633 [1]): active exclusively on B. subtilis; zone of inhibition (B. subtilis ATCC 6633 [1]; Bacillus subtilis, ATCC6633, read-out: growth inhibition diameter): 7 mm; zone of inhibition (S. aureus ATCC 25923 [2]; Staphylococcus aureus, ATCC25923, read-out: growth inhibition diameter): 0 mm; zone of inhibition (P. aeruginosa ATCC 27853; ATCC27853, read-out: growth inhibition diameter): 0 mm; zone of inhibition (E. coli ATCC 25922 [3]; Escherichia coli, ATCC25922, read-out: growth inhibition diameter): 0 mm; zone of inhibition (K. pneumoniae 1771; Klebsiella pneumoniae, 1771, read-out: growth inhibition diameter): 0 mm; zone of inhibition (C. albicans ATCC 10231 [4]; Candida albicans, ATCC10231, read-out: growth inhibition diameter): 0 mm; MIC (B. subtilis ATCC 6633 [5]): 4.8 mg/L (≈ 13.2 µM); MIC (B. subtilis ATCC 6633 [5]; Bacillus subtilis, ATCC6633, 24 h): 4.8 to 39 mg/L (≈ 13.2 to 108 µM); MIC (C. albicans ATCC 10231 [6]; ATCC10231, 24 h): > 5000 mg/L; MIC (E. coli ATCC 25922 [7]; ATCC25922, 24 h): > 5000 mg/L; MIC (S. aureus ATCC 25923 [8]; ATCC25923, 24 h): > 5000 mg/L; MBEC (S. aureus ATCC 25923 [9]): 19.5 µg/mL; IC50 at 24 h [10]: 252 mg/L (≈ 695 µM); viability at 24 h, 100 µg/mL [11]: 84.3% |
| O=C(Nc1ccc(Cl)cc1)ON=C1c2ccccc2COc2ccccc21 [Compound 7d, 6,11-Dihydrodibenz[b,e]oxepin-11(6H)one O-(4-chlorophenyl-carbamoyl)oxime] | 0 mm | 0 mm | 0 mm | 0 mm | 0 mm | 0 mm | – |
| O=C(Nc1ccc(Cl)cc1Cl)ON=C1c2ccccc2COc2ccccc21 [Compound 7e, 6,11-Dihydrodibenz[b,e]oxepin-11(6H)one O-(2,4-dichlorophenyl-carbamoyl)oxime] | 0 mm | 0 mm | 0 mm | 0 mm | 0 mm | 0 mm | – |
| O=C(Nc1cccc(C(F)(F)F)c1)ON=C1c2ccccc2COc2ccccc21 [Compound 7f, 6,11-Dihydrodibenz[b,e]oxepin-11(6H)one O-(3-trifluoromethylphenyl-carbamoyl)oxime] | 11 mm | 8 mm | 0 mm | 10 mm | 0 mm | 12 mm | growth inhibition diameter (B. subtilis ATCC 6633 [1]): inhibited the microbial growth; growth inhibition diameter (S. aureus ATCC 25923 [2]; S. aureus ATCC 25923, adapted diffusion assay): inhibited the microbial growth; growth inhibition diameter (E. coli ATCC 25922 [3]; E. coli ATCC 25922, adapted diffusion assay): inhibited the microbial growth; growth inhibition diameter (C. albicans ATCC 10231 [4]; C. albicans ATCC 10231, adapted diffusion assay): inhibited the microbial growth; MIC (E. coli ATCC 25922 [7]; ATCC25922, E. coli ATCC 25922, 24 h at 37 °C, read-out: MIC): 78 mg/L (≈ 189 µM); MIC (S. aureus ATCC 25923 [8]; ATCC25923, S. aureus ATCC 25923, 24 h at 37 °C, read-out: MIC): 4.8 mg/L (≈ 11.6 µM); MBEC (B. subtilis ATCC 6633 [12]): 39 µg/mL; MBEC (S. aureus ATCC 25923 [9]): 39 µg/mL; IC50 at 24 h [10]: 54.3 mg/L (≈ 132 µM); viability at 24 h, 100 µg/mL [11]: 14.8% |
| Cc1ccc2c(c1)C(=NOC(=O)Nc1ccc(Cl)cc1Cl)c1ccccc1CO2 [Compound 7g, 2-Methyl-6,11-dihydro-dibenz[b,e]oxepin-11(6H)one O-(2,4-dichlorophenyl-carbamoyl)oxime] | 0 mm | 0 mm | 0 mm | 0 mm | 0 mm | 0 mm | – |
| CCc1ccc2c(c1)C(=NOC(=O)Nc1ccccc1)c1ccccc1CO2 [Compound 7h, 2-Ethyl-6,11-dihydro-dibenz[b,e]oxepin-11(6H)one O-(phenyl-carbamoyl)oxime] | 0 mm | 0 mm | 0 mm | 0 mm | 0 mm | 0 mm | – |
| CCc1ccc2c(c1)C(=NOC(=O)Nc1ccc(F)cc1)c1ccccc1CO2 [Compound 7i, 2-Ethyl-6,11-dihydro-dibenz[b,e]oxepin-11(6H)one O-(4-fluorophenyl-carbamoyl)oxime] | 0 mm | 0 mm | 0 mm | 0 mm | 0 mm | 0 mm | – |
| CCc1ccc2c(c1)C(=NOC(=O)Nc1ccc(Cl)cc1Cl)c1ccccc1CO2 [Compound 7j, 2-Ethyl-6,11-dihydro-dibenz[b,e]oxepin-11(6H)one O-(2,4-dichlorophenyl-carbamoyl)oxime] | 0 mm | 0 mm | 0 mm | 0 mm | 0 mm | 0 mm | – |
| OC(Cn1cncn1)(Cn1cncn1)c1ccc(F)cc1F [Fluconazole, fluconazole, reference compound] | – | – | – | – | – | 10 mm | MIC (C. albicans ATCC 10231 [6]; ATCC10231, C. albicans ATCC 10231, 24 h at 37 °C, read-out: MIC): 4.8 mg/L (≈ 15.7 µM); MBEC (C. albicans ATCC 10231 [13]): 39 µg/mL |
